The target of assay [1] is BCR-FMS/BaF3 cells (Homo sapiens, UniProt P07333). Description: BCR-FMS/BaF3 cell proliferation assay (ATPlite). It is filed as cell-based. The method, boiled down:
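Proliferation read by ATPlite luminescence after 3 days' exposure (37 °C, 5% CO2) to compound in 1:3 dilutions, eight points, maximum 10 μM final, DMSO control.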
(In general: Cellular ATP, detected with luciferase, serves as a proxy for viable cell number.)

Assay [2] addresses BCR-KIT/BaF3 cells (Homo sapiens, UniProt P10721). Description: BCR-KIT/BaF3 cell proliferation assay (ATPlite). It is filed as cell-based. Conditions: read-out: BCR/BaF3 (IC50 μM) Kit. The method, boiled down:
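BCR-KIT/BaF3 cells plated at 10,000/well in G418-containing medium without IL-3/WEHI; MV-4-11 at 25,000/well in medium with 10% FBS. Compound given as 8-point 1:3 titration, top 10 μM final, 3 days at 37 °C. Viability read as ATPlite luminescence; IC50 from concentration curve.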

The mark [3] stands for this setting: Kit IC50/Fms IC50, BCR-KIT/BaF3 vs BCR-FMS/BaF3 cells.
Where [4] appears, read: read-out: BCR/BaF3 (IC50 μM) Fms; BCR-FMS/BaF3 cells.
Setting [5] is: BCR-FMS/BaF3 cells; read-out: BCR/BaF3 (IC50 μM) Fms.

SMILES strings stand for the structures. Where two headings read alike, the source gives them in different places.

The values below come from patent US9096593B2, “Compounds and methods for kinase modulation, and indications therefor” (Plexxikon Inc., priority 2009, dated 2015).

Chain of BCR-KIT/BaF3 cells (P10721 26-976 limits assumed, change not shown): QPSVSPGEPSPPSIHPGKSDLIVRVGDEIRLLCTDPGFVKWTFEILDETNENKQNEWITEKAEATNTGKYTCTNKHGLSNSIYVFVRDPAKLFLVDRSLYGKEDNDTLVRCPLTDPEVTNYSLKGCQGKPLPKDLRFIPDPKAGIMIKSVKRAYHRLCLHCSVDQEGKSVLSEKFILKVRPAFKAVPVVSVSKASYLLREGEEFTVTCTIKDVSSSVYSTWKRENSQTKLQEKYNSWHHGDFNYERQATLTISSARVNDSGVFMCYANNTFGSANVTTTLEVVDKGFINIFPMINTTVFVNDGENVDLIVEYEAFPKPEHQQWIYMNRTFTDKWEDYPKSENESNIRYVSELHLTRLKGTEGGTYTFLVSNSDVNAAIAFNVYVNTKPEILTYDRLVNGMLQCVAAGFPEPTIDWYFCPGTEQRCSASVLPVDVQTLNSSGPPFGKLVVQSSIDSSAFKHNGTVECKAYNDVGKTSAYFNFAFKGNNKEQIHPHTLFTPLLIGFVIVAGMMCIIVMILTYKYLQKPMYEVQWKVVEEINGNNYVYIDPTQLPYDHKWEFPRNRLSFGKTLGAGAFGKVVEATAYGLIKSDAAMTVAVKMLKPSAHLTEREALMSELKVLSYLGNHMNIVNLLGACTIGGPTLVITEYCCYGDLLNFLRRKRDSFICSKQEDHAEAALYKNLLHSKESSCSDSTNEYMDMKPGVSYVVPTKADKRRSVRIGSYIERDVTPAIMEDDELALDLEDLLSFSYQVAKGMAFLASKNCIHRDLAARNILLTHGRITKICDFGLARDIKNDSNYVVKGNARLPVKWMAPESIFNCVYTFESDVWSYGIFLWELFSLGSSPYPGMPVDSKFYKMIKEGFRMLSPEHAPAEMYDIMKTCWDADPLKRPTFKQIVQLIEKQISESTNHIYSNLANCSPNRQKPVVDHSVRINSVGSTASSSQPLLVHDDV
Chain of BCR-FMS/BaF3 cells (P07333 20-972 limits assumed, change not shown): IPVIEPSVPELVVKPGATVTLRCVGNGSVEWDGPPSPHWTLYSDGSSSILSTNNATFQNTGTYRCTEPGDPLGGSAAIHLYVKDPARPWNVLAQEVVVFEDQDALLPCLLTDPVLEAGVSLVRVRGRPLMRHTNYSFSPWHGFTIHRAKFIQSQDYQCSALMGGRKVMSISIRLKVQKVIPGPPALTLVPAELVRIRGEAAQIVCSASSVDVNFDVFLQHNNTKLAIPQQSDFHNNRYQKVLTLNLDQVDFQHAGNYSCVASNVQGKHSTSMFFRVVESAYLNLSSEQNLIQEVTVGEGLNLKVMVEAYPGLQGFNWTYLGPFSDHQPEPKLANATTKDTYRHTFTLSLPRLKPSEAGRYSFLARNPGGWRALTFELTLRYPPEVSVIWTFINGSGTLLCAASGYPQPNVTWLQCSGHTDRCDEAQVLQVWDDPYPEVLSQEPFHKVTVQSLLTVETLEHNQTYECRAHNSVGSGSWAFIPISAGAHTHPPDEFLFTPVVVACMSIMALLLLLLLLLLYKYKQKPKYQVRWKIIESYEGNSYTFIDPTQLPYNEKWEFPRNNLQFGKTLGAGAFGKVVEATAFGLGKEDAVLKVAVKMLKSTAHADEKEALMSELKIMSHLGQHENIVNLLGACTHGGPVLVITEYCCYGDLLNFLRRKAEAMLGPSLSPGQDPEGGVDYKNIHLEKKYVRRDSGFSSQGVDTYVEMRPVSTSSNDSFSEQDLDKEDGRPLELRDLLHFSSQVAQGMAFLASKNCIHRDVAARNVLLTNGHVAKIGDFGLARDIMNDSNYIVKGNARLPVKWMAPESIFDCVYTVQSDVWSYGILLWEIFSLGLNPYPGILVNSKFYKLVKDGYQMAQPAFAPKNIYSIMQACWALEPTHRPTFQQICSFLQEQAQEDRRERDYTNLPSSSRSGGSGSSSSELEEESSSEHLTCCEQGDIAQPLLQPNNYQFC

For the compound `COc1ccc(CNc2ncc(Cc3c[nH]c4ncc(C)cc34)cn2)cn1` [Compound P-2057, (6-Methoxy-pyridin-3-ylmethyl)-[5-(5-methyl-1H-pyrrolo[2,3-b]pyridin-3-ylmethyl)-pyrimidin-2-yl]-amine], the “BCR/BaF3 selectivity (Kit IC50/Fms IC50)” value in assay [1] (setting [3]) was more than 20. For the same compound, the IC50 in assay [1] (setting [4]) is less than 0.1 µM; in assay [1] (read-out: Cell based (IC50 μM) BCR/BaF3 (Fms); BCR-FMS/BaF3 cells, 3 days), less than 0.1 µM; in assay [2], more than 0.1 µM.
`COc1ncc(F)cc1CNc1ncc(Cc2c[nH]c3ncc(C)cc23)cn1` [Compound P-2061, (5-Fluoro-2-methoxy-pyridin-3-ylmethyl)-[5-(5-methyl-1H-pyrrolo[2,3-b]pyridin-3-ylmethyl)-pyrimidin-2-yl]-amine]: the “BCR/BaF3 selectivity (Kit IC50/Fms IC50)” value in assay [1] (setting [3]) is reported as more than 20. In addition, the IC50 in assay [1] (setting [4]) is less than 0.1 µM; in assay [2], more than 0.1 µM.
With `Cc1cnc2[nH]cc(Cc3ccc(NCc4cnccc4C(F)(F)F)nc3F)c2c1` [Compound P-2062, [6-Fluoro-5-(5-methyl-1H-pyrrolo[2,3-b]pyridin-3-ylmethyl)-pyridin-2-yl]-(4-trifluoromethyl-pyridin-3-ylmethyl)-amine], the “BCR/BaF3 selectivity (Kit IC50/Fms IC50)” value in assay [1] (setting [3]) was more than 20. Besides, the IC50 in assay [1] (setting [4]) was less than 0.1 µM; in assay [2], more than 0.1 µM.
Consider `FC(F)(F)c1ccncc1CNc1ccc(Cc2c[nH]c3ncc(Cl)cc23)cn1` [Compound P-2063, [5-(5-Chloro-1H-pyrrolo[2,3-b]pyridin-3-ylmethyl)-pyridin-2-yl]-(4-trifluoromethyl-pyridin-3-ylmethyl)-amine], for which the “BCR/BaF3 selectivity (Kit IC50/Fms IC50)” value in assay [1] (setting [3]) is more than 20. For the same compound, the IC50 is less than 0.1 µM in assay [1] (setting [4]) and more than 0.1 µM in assay [2].
Taken in the same sequence, the figures for `COc1ncc(F)cc1CNc1ncc(Cc2c[nH]c3ncc(Cl)cc23)cn1` [Compound P-2064, [5-(5-Chloro-1H-pyrrolo[2,3-b]pyridin-3-ylmethyl)-pyrimidin-2-yl]-(5-fluoro-2-methoxy-pyridin-3-ylmethyl)-amine] were more than 20, less than 0.1 µM and more than 0.1 µM.
`Cc1cnc2[nH]cc(Cc3ccc(NCc4cnccc4C(F)(F)F)nc3)c2c1` [Compound P-2070, [5-(5-Methyl-1H-pyrrolo[2,3-b]pyridin-3-ylmethyl)-pyridin-2-yl]-(4-trifluoromethyl-pyridin-3-ylmethyl)-amine]: the IC50 in assay [1] (setting [5]) was less than 0.1 µM; in assay [2], more than 0.1 µM. Besides, the “BCR/BaF3 selectivity (Kit IC50/Fms IC50)” value in assay [1] (setting [3]) is listed as more than 20.
Take `COc1cc(CNc2ccc(Cc3c[nH]c4ncc(C)cc34)c(F)n2)c(F)cn1` [Compound P-2071, (5-Fluoro-2-methoxy-pyridin-4-ylmethyl)-[6-fluoro-5-(5-methyl-1H-pyrrolo[2,3-b]pyridin-3-ylmethyl)-pyridin-2-yl]-amine]: the “BCR/BaF3 selectivity (Kit IC50/Fms IC50)” value in assay [1] (setting [3]) was more than 20. The IC50 in assay [1] (setting [4]) and in assay [2] was more than 0.1 µM throughout.
Take `COc1ncc(CNc2ncc(Cc3c[nH]c4ncc(C)cc34)cn2)cc1F` [Compound P-2073, (5-Fluoro-6-methoxy-pyridin-3-ylmethyl)-[5-(5-methyl-1H-pyrrolo[2,3-b]pyridin-3-ylmethyl)-pyrimidin-2-yl]-amine]: the “BCR/BaF3 selectivity (Kit IC50/Fms IC50)” value in assay [1] (setting [3]) is on record as more than 20. In addition, the figures for the IC50 in assay [1] (setting [4]) and in assay [2] were less than 0.1 µM and more than 0.1 µM, respectively.
With `Cc1cnc2[nH]cc(Cc3cnc(NCc4ccc(Cl)nc4)nc3)c2c1` [Compound P-2078, (6-Chloro-pyridin-3-ylmethyl)-[5-(5-methyl-1H-pyrrolo[2,3-b]pyridin-3-ylmethyl)-pyrimidin-2-yl]-amine], the “BCR/BaF3 selectivity (Kit IC50/Fms IC50)” value in assay [1] (setting [3]) is listed as more than 20. The IC50 in assay [1] (setting [4]) is less than 0.1 µM; in assay [2], more than 0.1 µM.
As for `Cc1cnc2[nH]cc(Cc3cnc(NCc4cccc(C)n4)nc3)c2c1` [Compound P-2079, (6-Methyl-pyridin-2-ylmethyl)-[5-(5-methyl-1H-pyrrolo[2,3-b]pyridin-3-ylmethyl)-pyrimidin-2-yl]-amine], the “BCR/BaF3 selectivity (Kit IC50/Fms IC50)” value in assay [1] (setting [3]) is recorded as less than 20. Besides, the IC50 is less than 0.1 µM in assay [1] (setting [4]) and more than 0.1 µM in assay [2].
As to `Cc1cnc2[nH]cc(Cc3cnc(NCc4cccc(N5CCOCC5)n4)nc3)c2c1` [Compound P-2081, [5-(5-Methyl-1H-pyrrolo[2,3-b]pyridin-3-ylmethyl)-pyrimidin-2-yl]-(6-morpholin-4-yl-pyridin-2-ylmethyl)-amine], in assay [1] (setting [3]), the “BCR/BaF3 selectivity (Kit IC50/Fms IC50)” value is reported as less than 20. Also, the IC50 in assay [1] (setting [4]) and in assay [2] was more than 0.1 µM throughout.
`Cc1cnc2[nH]cc(Cc3cnc(NCc4cccc(N5CCCC5)n4)nc3)c2c1` [Compound P-2082, [5-(5-Methyl-1H-pyrrolo[2,3-b]pyridin-3-ylmethyl)-pyrimidin-2-yl]-(6-pyrrolidin-1-yl-pyridin-2-ylmethyl)-amine]: the “BCR/BaF3 selectivity (Kit IC50/Fms IC50)” value in assay [1] (setting [3]) is less than 20. The values for the IC50 in assay [1] (setting [4]) and in assay [2] were less than 0.1 µM and more than 0.1 µM, respectively.
On to `Cc1cnc2[nH]cc(Cc3ccc(NCc4ccc(Cl)nc4)nc3F)c2c1` [Compound P-2088, (6-Chloro-pyridin-3-ylmethyl)-[6-fluoro-5-(5-methyl-1H-pyrrolo[2,3-b]pyridin-3-ylmethyl)-pyridin-2-yl]-amine], for which the “BCR/BaF3 selectivity (Kit IC50/Fms IC50)” value in assay [1] (setting [3]) is recorded as more than 20. For the same compound, the IC50 in assay [1] (setting [4]) is less than 0.1 µM; in assay [2], more than 0.1 µM.
For the compound `COc1ccc(CNc2ccc(Cc3c[nH]c4ncc(C)cc34)c(F)n2)c(OC)n1` [Compound P-2097, (2,6-Dimethoxy-pyridin-3-ylmethyl)-[6-fluoro-5-(5-methyl-1H-pyrrolo[2,3-b]pyridin-3-ylmethyl)-pyridin-2-yl]-amine], the “BCR/BaF3 selectivity (Kit IC50/Fms IC50)” value in assay [1] (setting [3]) is listed as more than 20. The IC50 is less than 0.1 µM in assay [1] (setting [4]) and more than 0.1 µM in assay [2].
On to `Cc1cnc2[nH]cc(Cc3ccc(NCc4cccnc4F)nc3F)c2c1` [Compound P-2103, [6-Fluoro-5-(5-methyl-1H-pyrrolo[2,3-b]pyridin-3-ylmethyl)-pyridin-2-yl]-(2-fluoro-pyridin-3-ylmethyl)-amine], for which the “BCR/BaF3 selectivity (Kit IC50/Fms IC50)” value in assay [1] (setting [3]) was less than 20. Besides, the IC50 was less than 0.1 µM in assay [1] (setting [4]) and more than 0.1 µM in assay [2].
On to `Cc1cnc2[nH]cc(Cc3ccc(NCc4ccnc(F)c4)nc3F)c2c1` [Compound P-2118, [6-Fluoro-5-(5-methyl-1H-pyrrolo[2,3-b]pyridin-3-ylmethyl)-pyridin-2-yl]-(2-fluoro-pyridin-4-ylmethyl)-amine], for which the “BCR/BaF3 selectivity (Kit IC50/Fms IC50)” value in assay [1] (setting [3]) was more than 20. In addition, the values for the IC50 in assay [1] (setting [4]) and in assay [2] were less than 0.1 µM and more than 0.1 µM, respectively.
On to `Cc1ccc(CNc2ccc(Cc3c[nH]c4ncc(C)cc34)c(F)n2)nc1` [Compound P-2131, [6-Fluoro-5-(5-methyl-1H-pyrrolo[2,3-b]pyridin-3-ylmethyl)-pyridin-2-yl]-(5-methyl-pyridin-2-ylmethyl)-amine], for which the IC50 in assay [1] (setting [5]) was less than 0.1 µM; in assay [2] it was more than 0.1 µM. Also, the “BCR/BaF3 selectivity (Kit IC50/Fms IC50)” value in assay [1] (setting [3]) is recorded as less than 20.
For the compound `COc1ncccc1CNc1ncc(Cc2c[nH]c3ncc(C)cc23)cn1` [Compound P-2139, (2-Methoxy-pyridin-3-ylmethyl)-[5-(5-methyl-1H-pyrrolo[2,3-b]pyridin-3-ylmethyl)-pyrimidin-2-yl]-amine], the “BCR/BaF3 selectivity (Kit IC50/Fms IC50)” value in assay [1] (setting [3]) was less than 20. The IC50 in assay [1] (setting [4]) and in assay [2] was more than 0.1 µM each time.
With `Cc1cnc2[nH]cc(Cc3cnc(NCc4ccc(C(F)(F)F)nc4)c(F)c3)c2c1` [Compound P-2146, [3-Fluoro-5-(5-methyl-1H-pyrrolo[2,3-b]pyridin-3-ylmethyl)-pyridin-2-yl]-(6-trifluoromethyl-pyridin-3-ylmethyl)-amine], the “BCR/BaF3 selectivity (Kit IC50/Fms IC50)” value in assay [1] (setting [3]) was less than 20. The IC50 in assay [1] (setting [4]) is less than 0.1 µM; in assay [2] it was more than 0.1 µM.
For `COc1cnc2[nH]cc(Cc3cnc(NCc4ccc(C(F)(F)F)nc4)c(F)c3)c2c1` [Compound P-2147, [3-Fluoro-5-(5-methoxy-1H-pyrrolo[2,3-b]pyridin-3-ylmethyl)-pyridin-2-yl]-(6-trifluoromethyl-pyridin-3-ylmethyl)-amine], the “BCR/BaF3 selectivity (Kit IC50/Fms IC50)” value in assay [1] (setting [3]) is given as less than 20. Besides, the IC50 in assay [1] (setting [4]) and in assay [2] was less than 0.1 µM throughout.
For `Cc1cnc2[nH]cc(Cc3cnc(NCc4cccnc4OC4CCCC4)nc3)c2c1` [Compound P-2148, (2-Cyclopentyloxy-pyridin-3-ylmethyl)-[5-(5-methyl-1H-pyrrolo[2,3-b]pyridin-3-ylmethyl)-pyrimidin-2-yl]-amine], the IC50 in assay [1] (setting [5]) was less than 0.1 µM; in assay [2] it was more than 0.1 µM. Moreover, the “BCR/BaF3 selectivity (Kit IC50/Fms IC50)” value in assay [1] (setting [3]) is on record as less than 20.
As for `COc1ccc(CNc2ncc(Cc3c[nH]c4ncc(Cl)cc34)s2)cn1` [Compound P-2154, [5-(5-Chloro-1H-pyrrolo[2,3-b]pyridin-3-ylmethyl)-thiazol-2-yl]-(6-methoxy-pyridin-3-ylmethyl)-amine], the IC50 is less than 0.1 µM in assay [1] (setting [5]) and more than 0.1 µM in assay [2]. Further, in assay [1] (setting [3]), the “BCR/BaF3 selectivity (Kit IC50/Fms IC50)” value is given as less than 20.
Consider `Cn1cc(F)cc(CNc2ncc(Cc3c[nH]c4ncc(Cl)cc34)cn2)c1=O` [Compound P-2157, 3-{[5-(5-Chloro-1H-pyrrolo[2,3-b]pyridin-3-ylmethyl)-pyrimidin-2-ylamino]-methyl}-5-fluoro-1-methyl-1H-pyridin-2-one], for which, in assay [1] (setting [3]), the “BCR/BaF3 selectivity (Kit IC50/Fms IC50)” value was more than 20. The IC50 in assay [1] (setting [4]) is less than 0.1 µM; in assay [2], more than 0.1 µM.
